# Measured values taken from patent publication US10202360B2 (CELGENE QUANTICEL RESEARCH, INC., priority 2016, dated 2019).
# Target: CREBBP (Homo sapiens (Human), UniProt Q92793)
# Test: In vitro enzyme inhibition assay - CREBBP inhibition (AlphaScreen, biotinylated H4-tetraacetyl peptide)
# Format: binding
# Conditions: Table 28; AlphaScreen, H4-tetraacetyl peptide
# Outline: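 His-tagged CREBBP expressed in E. coli (50 nM final) incubated with biotinylated H4K5/8/12/16(Ac) peptide (20 nM final) in HEPES pH 7.3 buffer, 0.4% DMSO, 20 min at room temperature.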
# Chain of CREBBP (Q92793 1081-1197): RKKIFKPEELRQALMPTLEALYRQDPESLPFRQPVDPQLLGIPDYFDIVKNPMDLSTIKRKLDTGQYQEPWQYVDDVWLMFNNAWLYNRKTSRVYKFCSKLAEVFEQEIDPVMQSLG
row,Structure (SMILES),IC50 [µM]
1,"Cc1cccc(Cl)c1Oc1nc(NC(C)C)cc(-c2ccc(=O)n(C)c2)n1 [Example 283, 5-(2-(2-chloro-6-methylphenoxy)-6-(isopropylamino)pyrimidin-4-yl)-1-methylpyridin-2(1H)-one]",< 0.5
2,"Cc1cccc(F)c1Oc1nc(NC2CCCC2)cc(-c2ccc(=O)n(C)c2)n1 [Example 285, 5-(6-(cyclopentylamino)-2-(2-fluoro-6-methylphenoxy)pyrimidin-4-yl)-1-methylpyridin-2(1H)-one]",< 0.5
3,"Cc1cccc(F)c1Oc1nc(NCC2CCCc3ccccc32)cc(-c2ccc(=O)n(C)c2)n1 (stereo not shown) [Example 286, 5-(2-(2-fluoro-6-methylphenoxy)-6-(((1,2,3,4-tetrahydronaphthalen-1-yl)methyl)amino)pyrimidin-4-yl)-1-methylpyridin-2(1H)-one]",< 0.5
4,"Cc1cccc(F)c1Oc1nc(N[C@H]2CCc3ccccc32)cc(-c2ccc(=O)n(C)c2)n1 [Example 287, (S)-5-(6-((2,3-dihydro-1H-inden-1-yl)amino)-2-(2-fluoro-6-methylphenoxy)pyrimidin-4-yl)-1-methylpyridin-2(1H)-one]",< 0.5
5,"Cc1cccc(CNc2cc(-c3ccc(=O)n(C)c3)nc(Oc3c(C)cccc3F)n2)n1 [Example 289, 5-(2-(2-fluoro-6-methylphenoxy)-6-(((6-methylpyridin-2-yl)methyl)amino)pyrimidin-4-yl)-1-methylpyridin-2(1H)-one]",< 0.5
6,"Cc1cccc(F)c1Oc1nc(-c2ccc(=O)n(C)c2)cc(N(C)Cc2ccccc2)n1 [Example 293, 5-[6-(Benzyl-methyl-amino)-2-(2-fluoro-6-methyl-phenoxy)-pyrimidin-4-yl]-1-methyl-1H-pyridin-2-one]",< 0.5
7,"CCNc1cc(-c2cc(C)c(=O)n(C)c2)nc(Oc2c(C)cccc2F)n1 [Example 295, 5-[6-Ethylamino-2-(2-fluoro-6-methyl-phenoxy)-pyrimidin-4-yl]-1,3-dimethyl-1H-pyridin-2-one]",< 0.5
8,"Cc1cccc(F)c1Oc1nc(NCc2ccccc2)cc(-c2cc(C)c(=O)n(C)c2)n1 [Example 296, 5-[6-Benzylamino-2-(2-fluoro-6-methyl-phenoxy)-pyrimidin-4-yl]-1,3-dimethyl-1H-pyridin-2-one]",< 0.5
9,"Cc1cccc(F)c1Oc1nc(-c2cc(C)c(=O)n(C)c2)cc(N(C)Cc2ccccc2)n1 [Example 297, 5-[6-(Benzyl-methyl-amino)-2-(2-fluoro-6-methyl-phenoxy)-pyrimidin-4-yl]-1,3-dimethyl-1H-pyridin-2-one]",< 0.5
10,"Cc1cccc(F)c1Oc1nc(NC(C)c2ccccc2)cc(-c2ccc(=O)n(C)c2)n1 (stereo not shown) [Example 298, 5-[2-(2-Fluoro-6-methyl-phenoxy)-6-(1-phenyl-ethylamino)-pyrimidin-4-yl]-1-methyl-1H-pyridin-2-one]",< 0.5
11,"Cc1cccc(C)c1CNc1cc(-c2ccc(=O)n(C)c2)nc(Oc2c(C)cccc2F)n1 [Example 300, 5-[6-(2,6-Dimethyl-benzylamino)-2-(2-fluoro-6-methyl-phenoxy)-pyrimidin-4-yl]-1-methyl-1H-pyridin-2-one]",< 0.5
12,"Cc1cccc(F)c1Oc1nc(NCc2cccnc2)cc(-c2ccc(=O)n(C)c2)n1 [Example 303, 5-{2-(2-Fluoro-6-methyl-phenoxy)-6-[(pyridin-3-ylmethyl)-amino]-pyrimidin-4-yl}-1-methyl-1H-pyridin-2-one]",< 0.5
13,"Cc1cccc(F)c1Oc1nc(N[C@@H]2CCCc3ccccc32)cc(-c2ccc(=O)n(C)c2)n1 [Example 307, (R)-5-[2-(2-Fluoro-6-methyl-phenoxy)-6-(1,2,3,4-tetrahydro-naphthalen-1-ylamino)-pyrimidin-4-yl]-1-methyl-1H-pyridin-2-one]",< 0.5
14,"Cc1cccc(F)c1Oc1nc(N[C@H]2CCCc3ccccc32)cc(-c2ccc(=O)n(C)c2)n1 [Example 311, (S)-5-[2-(2-Fluoro-6-methyl-phenoxy)-6-(1,2,3,4-tetrahydro-naphthalen-1-ylamino)-pyrimidin-4-yl]-1-methyl-1H-pyridin-2-one]",< 0.5
15,"Cc1cccc(Cl)c1Oc1nc(NCCC(C)C)cc(-c2ccc(=O)n(C)c2)n1 [Example 315, 5-[2-(2-Chloro-6-methyl-phenoxy)-6-(3-methyl-butylamino)-pyrimidin-4-yl]-1-methyl-1H-pyridin-2-one]",< 0.5
16,"CCCCNc1cc(-c2ccc(=O)n(C)c2)nc(Oc2c(C)cccc2C#N)n1 [Example 316, 2-[4-Butylamino-6-(1-methyl-6-oxo-1,6-dihydro-pyridin-3-yl)-pyrimidin-2-yloxy]-3-methyl-benzonitrile]",< 0.5

# The next lines start with the values.
row,IC50 [µM],Structure (SMILES)
1,< 0.5,"Cc1cccc(Cl)c1Oc1nc(NC(C)c2ccccc2)cc(-c2ccc(=O)n(C)c2)n1 (stereo not shown) [Example 282, 5-(2-(2-chloro-6-methylphenoxy)-6-((1-phenylethyl)amino)pyrimidin-4-yl)-1-methylpyridin-2(1H)-one]"
2,< 0.5,"Cc1cccc(Cl)c1Oc1nc(NC2CCCC2)cc(-c2ccc(=O)n(C)c2)n1 [Example 284, 5-(2-(2-chloro-6-methylphenoxy)-6-(cyclopentylamino)pyrimidin-4-yl)-1-methylpyridin-2(1H)-one]"
3,< 0.5,"Cc1cccc(C(C)Nc2cc(-c3ccc(=O)n(C)c3)nc(Oc3c(C)cccc3F)n2)n1 (stereo not shown) [Example 288, 5-(2-(2-fluoro-6-methylphenoxy)-6-((1-(6-methylpyridin-2-yl)ethyl)amino)pyrimidin-4-yl)-1-methylpyridin-2(1H)-one]"
4,< 0.5,"Cc1ccc(CNc2cc(-c3ccc(=O)n(C)c3)nc(Oc3c(C)cccc3F)n2)cn1 [Example 290, 5-(2-(2-fluoro-6-methylphenoxy)-6-(((6-methylpyridin-3-yl)methyl)amino)pyrimidin-4-yl)-1-methylpyridin-2(1H)-one]"
5,< 0.5,"CCNc1cc(-c2ccc(=O)n(C)c2)nc(Oc2c(C)cccc2F)n1 [Example 291, 5-[6-Ethylamino-2-(2-fluoro-6-methyl-phenoxy)-pyrimidin-4-yl]-1-methyl-1H-pyridin-2-one]"
6,< 0.5,"Cc1cccc(F)c1Oc1nc(NCc2ccccc2)cc(-c2ccc(=O)n(C)c2)n1 [Example 292, 5-[6-Benzylamino-2-(2-fluoro-6-methyl-phenoxy)-pyrimidin-4-yl]-1-methyl-1H-pyridin-2-one]"
7,< 0.5,"Cc1cccc(F)c1Oc1nc(N)cc(-c2cc(C)c(=O)n(C)c2)n1 [Example 294, 5-[6-Amino-2-(2-fluoro-6-methyl-phenoxy)-pyrimidin-4-yl]-1,3-dimethyl-1H-pyridin-2-one]"
8,< 0.5,"Cc1ccccc1C(C)Nc1cc(-c2ccc(=O)n(C)c2)nc(Oc2c(C)cccc2F)n1 (stereo not shown) [Example 299, 5-[2-(2-Fluoro-6-methyl-phenoxy)-6-(1-o-tolyl-ethylamino)-pyrimidin-4-yl]-1-methyl-1H-pyridin-2-one]"
9,< 0.5,"Cc1ccc(C)c(CNc2cc(-c3ccc(=O)n(C)c3)nc(Oc3c(C)cccc3F)n2)c1 [Example 301, 5-[6-(2,5-Dimethyl-benzylamino)-2-(2-fluoro-6-methyl-phenoxy)-pyrimidin-4-yl]-1-methyl-1H-pyridin-2-one]"
10,< 0.5,"Cc1cccc(F)c1Oc1nc(NCc2ccccn2)cc(-c2ccc(=O)n(C)c2)n1 [Example 302, 5-{2-(2-Fluoro-6-methyl-phenoxy)-6-[(pyridin-2-ylmethyl)-amino]-pyrimidin-4-yl}-1-methyl-1H-pyridin-2-one]"
11,< 0.5,"CCCCNc1cc(-c2ccc(=O)n(C)c2)nc(Oc2c(C)cccc2F)n1 [Example 304, 5-[6-Butylamino-2-(2-fluoro-6-methyl-phenoxy)-pyrimidin-4-yl]-1-methyl-1H-pyridin-2-one]"
12,< 0.5,CCC[C@@H](C)Nc1cc(-c2ccc(=O)n(C)c2)nc(Oc2c(C)cccc2F)n1 [Example 305]
13,< 0.5,"Cc1cccc(F)c1Oc1nc(N[C@H](C)c2ccccc2)cc(-c2ccc(=O)n(C)c2)n1 [Example 306, (R)-5-[2-(2-Fluoro-6-methyl-phenoxy)-6-(1-phenyl-ethylamino)-pyrimidin-4-yl]-1-methyl-1H-pyridin-2-one]"
14,< 0.5,CCC[C@H](C)Nc1cc(-c2ccc(=O)n(C)c2)nc(Oc2c(C)cccc2F)n1 [Example 308]
15,< 0.5,"Cc1cccc(F)c1Oc1nc(NCCC(C)C)cc(-c2ccc(=O)n(C)c2)n1 [Example 309, 5-[2-(2-Fluoro-6-methyl-phenoxy)-6-(3-methyl-butylamino)-pyrimidin-4-yl]-1-methyl-1H-pyridin-2-one]"
16,< 0.5,"Cc1cccc(F)c1Oc1nc(N[C@@H](C)c2ccccc2)cc(-c2ccc(=O)n(C)c2)n1 [Example 310, (S)-5-[2-(2-Fluoro-6-methyl-phenoxy)-6-(1-phenyl-ethylamino)-pyrimidin-4-yl]-1-methyl-1H-pyridin-2-one]"
17,< 0.5,"CCCCNc1cc(-c2ccc(=O)n(C)c2)nc(Oc2c(C)cccc2Cl)n1 [Example 312, 5-[6-Butylamino-2-(2-chloro-6-methyl-phenoxy)-pyrimidin-4-yl]-1-methyl-1H-pyridin-2-one]"
18,< 0.5,"CCC[C@@H](C)Nc1cc(-c2ccc(=O)n(C)c2)nc(Oc2c(C)cccc2Cl)n1 [Example 313, (R)-5-[2-(2-Chloro-6-methyl-phenoxy)-6-(1-methyl-butylamino)-pyrimidin-4-yl]-1-methyl-1H-pyridin-2-one]"
19,< 0.5,"CCC[C@H](C)Nc1cc(-c2ccc(=O)n(C)c2)nc(Oc2c(C)cccc2Cl)n1 [Example 314, (S)-5-[2-(2-Chloro-6-methyl-phenoxy)-6-(1-methyl-butylamino)-pyrimidin-4-yl]-1-methyl-1H-pyridin-2-one]"
20,< 0.5,"CCC[C@@H](C)Nc1cc(-c2ccc(=O)n(C)c2)nc(Oc2c(C)cccc2C#N)n1 [Example 317, (R)-3-Methyl-2-[4-(1-methyl-butylamino)-6-(1-methyl-6-oxo-1,6-dihydro-pyridin-3-yl)-pyrimidin-2-yloxy]-benzonitrile]"
21,< 0.5,"Cc1cccc(C#N)c1Oc1nc(N[C@H](C)c2ccccc2)cc(-c2ccc(=O)n(C)c2)n1 [Example 318, (R)-3-Methyl-2-[4-(1-methyl-6-oxo-1,6-dihydro-pyridin-3-yl)-6-(1-phenyl-ethylamino)-pyrimidin-2-yloxy]-benzonitrile]"
